Measurements from patent US11932850B2, “Cancer chemoprevention with STAT3 blockers” (Jill M. Siegfried, LLC, priority 2018, dated 2024).

Experiments:
[1] = tested on: Ki-67, p-STAT3, NF-κB in H1975 xenografts; test: IHC of H1975 xenografts after 5 daily iv injections; format: in vivo, nude mice
Experimental: Because tumors treated for several weeks with the STAT3 decoy were largely composed of debris (as illustrated in FIG. 11), xenografts were examined after only 5 daily tail vein injections to determine what cellular changes were induced prior to collapse of the intracellular tumor structure. […] Tumors derived from H1975 xenografs were analyzed by immunohistochemical staining for p-STAT3 after 5 daily iv injections of either STAT3 decoy or mutant decoy. […] This effect is quantified in FIG. 9B.
Images were captured at 40× magnification. A shift from 41% of cells was observed and scored as high-grade staining with CS3M treatment to 13% with high-grade staining in the presence of CS3D, with corresponding increases in moderate- and low-grade staining in the STAT3 decoy treated group (FIG. 12B). […] Bright field images were captured at 40× magnification. Frequency of high-grade staining for p-STAT3 differed between CS3D and CS3M treatment groups (23% in CS3D-treated and 51% in CS3M treated, with corresponding increase in low-grade staining in presence of the active decoy (FIG. 9B). Significant degradation of p-STAT3 protein was detected by IHC in tumors was observed after treatment with CS3D. Percent of high staining fields was reduced from 48% to 22% while percent of fields with low staining increased, P<0.001 (FIG. 9B).
Immunohistochemical analysis: Tumors were excised for immunohistochemical (IHC) staining; 5-μm (micron) sections were cut from formalin-fixed paraffin-embedded tissue blocks, deparaffinized and rehydrated using successive washes of xylene followed by ethanol. Antigen retrieval was performed in a microwave oven (for 20 minutes) in an unmasking solution containing sodium citrate buffer followed by peroxidase blocking in 3% hydrogen peroxide. The sections were incubated in ABC blocking buffer (Vector laboratories Inc, Burlingame, California) for 1 hour at room temperature. Sections were then stained with H&E (hematoxylin and eosin) or subjected to sequential incubations with different primary antibodies and peroxidase-conjugated goat anti-rabbit secondary antibodies. The following primary antibodies were used (at the indicated dilutions): cleaved caspase-3 (#9664, Cell Signaling, 1:300), p-STAT3 (#9145, Cell Signaling, 1:400), Ki67 (#ab15580, Abcam, 1:1000). Sections were developed with DAB and counterstained with hematoxylin. Bright field microscopy was performed using Leica DM 4000 B LED microscope and images were captured at 20× and 40× magnification using LASv4.7 software. IHC analysis was done as a blinded study with 100 images from each treatment group graded as low, moderate, or high. Staining was graded as low (<30% positive cells per field, scored as 1), moderate (30-60% positive cells per field, scored as 2) or high (>60% positive cells per field, scored as 3).

[2] = tested on: Myc and Bcl-xL mRNA in NSCLC cells; details: 300 nM one transfection, 10 ng/ml EGF, 1 hr after EGF

CS3D (DNA GATTTACGGGAAATGCSCATTTCCC; cyclic decoy with two hexaethylene glycol linkers, further chemistry not given here)
Ki-67 high-grade staining ([1]; H1975 xenografts, 5 daily injections): 13% | frequency of high-grade staining for p-STAT3 ([1]; H1975 xenografts, 5 daily iv injections): 23% | percent of high staining fields for p-STAT3 ([1]; H1975 xenografts, second statement in b134 (FIG. 9B)): 22% | induction of apoptosis at early time point ([1]; after 5 daily injections (not shown)): no induction of apoptosis | NF-κB nuclear protein ([1]; after five days of treatment): No change | reduction of Bcl-Xl mRNA expression in response to EGF [2]: ≥ 60% | reduction of c-Myc mRNA expression in response to EGF [2]: ≥ 60%
